Data as given in US8193168B2, “Use of a TRPM5 inhibitor to regulate insulin and GLP-1 release” (Redpoint Bio Corporation, priority 2007, dated 2012).

Key:
[1] = test system: Beta-TC-6 cells; test: Insulin release enhancement in Beta-TC-6 cells (insulin ELISA); type: cell-based, mouse; settings: for Percent Enhancement of Insulin Secretion (10 μM): compound at 10 μM; for glucose dependence of stimulation of insulin release: varying glucose concentration, FIG. 3 and FIG. 7
Protocol: Beta-TC-6 cells are an insulin-secreting cell line derived from transgenic mice expressing the large T-antigen of simian virus 40 (SV40) in pancreatic beta-cells as described by Poitout et al., Diabetes, 44:306-313 (1995). The cell line was obtained from ATCC cell bank CAT# CRL-11506 and grown in Dulbecco's Modified Eagle's Medium (DMEM) with 15% fetal bovine serum (FBS), 4 mM glutamine, 4.5 mM glucose 1500 mg/L sodium bicarbonate and 1× penn/strep antibiotic mix in a 37° C. incubator with 5% CO2. Cultures were routinely split 1:2 twice a week with the aid of trypsin.
On the day before the assay 0.1×10^6 Beta-TC-6 cells were plated into each well of 96 well plates, and the cells cultured overnight in growth media.
On the next day, growth media was removed from the plate and the monolayers rinsed with phosphate buffered saline (PBS) and pre-incubated 30 mins at 37° C. in Krebs-Ringer Bicarbonate Buffer (KRBB) consisting of 118.5 mM NaCl, 2.54 mM CaCl2, 1.19 mM KH2PO4, 4.74 mM KCl, 25 mM NaHCO3, 1.19 mM MgSO4, 10 mM HEPES buffer and 0.1% bovine serum albumin at pH 7.4. This buffer was removed and replaced with 100 μL of the same buffer containing various insulin release modulators: including various concentrations of glucose up to 12 mM and compounds up to 100 μM. Compounds stock solutions, e.g. 10-20 mM, were diluted in DMSO. Final DMSO concentrations in incubation buffer were 0.5% or less. Vehicle controls were included. Static incubations were then performed for 2 h at 37° C. The entire incubation volume was collected after the 2 h incubation for insulin assay.
ELISA Protocol for insulin determinations. The following protocol was used for doing ELISA using the Rat/Mouse Insulin ELISA Kit from Linco Research, Inc., CAT#EZRMI-13K and Amplex® Red Hydrogen Peroxide/Peroxidase Assay Kit, CAT#A22188, and Amplex® Red reagent (10-acetyl-3,7-dihydroxyphenoxazine) CAT#A12222.
All reagents were Pre-warmed to room temperature before setting up experiment.
1. Dilute the 10× washing buffer into 1× washing buffer. 50 mL+450 mL de-ionized water. Do 1:10 dilution to the cell culture supernatant (Beta-TC-6 cell incubation).
2. Use one column (8 wells) wells for standard samples and QC1 and QC2, typically 0 and 5 ng/mL of insulin. On some plates full standard curves for insulin obtained as shown below.
3. Cover the unused wells well. Wash each well 3 times with 300 μL of 1× washing buffer each time. (2 minutes each washing step on the shaker.) Decant Wash Buffer and remove the residual amount from all wells by inverting the plate and tapping it smartly onto absorbent towels several times.
4. Add 20 μL Assay Buffer into that blank well and 10 μL into those wells for standards and samples.
5. Add 10 μL rat insulin standards and samples to the appropriate wells.
6. Add 80 μL Detection Antibody to all wells. Cover the plate and incubate at room temperature for 2 hours.
7. Tear off the plate cover and decant solutions from the plate. Tap to remove residual solutions in well.
8. Wash well 3 times with diluted wash buffer 300 μL per well per wash (2 minutes each washing step on the shaker). Tap to remove residual solutions as before.
9. Add 100 μL Enzyme Solution to each well. Cover plate with sealer and incubate with moderate shaking at room temperature for 30 min on the microtiter plate shaker.
10. Remove sealer, decant solutions from the plate and tap plate to remove the residual fluid.
11. Wash wells 6 times with diluted Wash Buffer, 300 μL per well per wash. Decant and tap after each wash to remove residual buffer.
12. Prepare 5 mL working solution of […] Amolex Red reagent containing 2.0 mM H2O2. 4.45 mL of 1× Reaction buffer+50 μL 10 mM Amplex Reagent+500 μL 20 mM H2O2.
13. Add 100 μL of the Amplex Red reagent/H2O2 to each well.
14. Incubate the reactions. Incubate at room temperature for 30 minutes, protected from light (using foil to wrap the plate). […]

[2] = test system: calcium-activated current in Beta TC6 cells; test: Whole-cell electrophysiology of calcium-activated current in Beta TC6 cells; type: cell-based, mouse; settings: pulsed doses, current versus time, FIG. 13
Protocol: Whole-cell recordings of TRP channel currents were obtained from acutely trypsinized beta TC-6 cells and TRPM5-expressing HEK cells. The bath solution was Hank's Balanced Salt Solution, composed of (mM); 1.2 CaCl2, 0.5 MgCl2-6H2O, 0.4 MgSO4.7H2O, 5.3 KCl, 0.4 KH2PO4, 137.9 NaCl, 0.3 Na2HPO4.7H2O, and 5.5 D-Glucose, with 20 mM HEPES (Invitrogen), pH 7.4 (NaOH). The internal pipette solution contained, in mM: 135 glutamic acid, 8 NaCl, 9 CaCl2, 10 HEPES and 10 EGTA, pH 7.2 (CsOH) (Sigma). Calculated concentration of free calcium in internal solution was 1.5 μM (http://www.stanford.edu/˜cpatton/webmaxc/webmaxcS.htm). Recording pipettes were pulled using a Flaming/Brown Micropipette Puller (Sutter Instruments), from fire-polished borosilicate glass, to approximately 2 MΩ.
Voltage clamp recordings were obtained in whole cell mode using MultiClamp 700B amplifier and Digidata 1322A converter running on Clampex 9.2 software (Axon Instruments). Recordings were performed at room temperature. The recording protocol consisted of a ramp from −80 mV potential to +80 mV, followed by a step to −80 mV. Peak current was measured at three different voltages: −80 mV, after ramping to +80 mV, then following a return to −80 mV. Series resistance was automatically compensated immediately after the break-in, and the resulting capacitance measurements were used for current density calculations. […]

[3] = molecular target: T1, TRPM5 (Homo sapiens, UniProt Q9NZQ8); test: TRPM5 inhibition (FLIPR Membrane Potential Assay); type: cell-based
T1 sequence (Q9NZQ8 1-1165): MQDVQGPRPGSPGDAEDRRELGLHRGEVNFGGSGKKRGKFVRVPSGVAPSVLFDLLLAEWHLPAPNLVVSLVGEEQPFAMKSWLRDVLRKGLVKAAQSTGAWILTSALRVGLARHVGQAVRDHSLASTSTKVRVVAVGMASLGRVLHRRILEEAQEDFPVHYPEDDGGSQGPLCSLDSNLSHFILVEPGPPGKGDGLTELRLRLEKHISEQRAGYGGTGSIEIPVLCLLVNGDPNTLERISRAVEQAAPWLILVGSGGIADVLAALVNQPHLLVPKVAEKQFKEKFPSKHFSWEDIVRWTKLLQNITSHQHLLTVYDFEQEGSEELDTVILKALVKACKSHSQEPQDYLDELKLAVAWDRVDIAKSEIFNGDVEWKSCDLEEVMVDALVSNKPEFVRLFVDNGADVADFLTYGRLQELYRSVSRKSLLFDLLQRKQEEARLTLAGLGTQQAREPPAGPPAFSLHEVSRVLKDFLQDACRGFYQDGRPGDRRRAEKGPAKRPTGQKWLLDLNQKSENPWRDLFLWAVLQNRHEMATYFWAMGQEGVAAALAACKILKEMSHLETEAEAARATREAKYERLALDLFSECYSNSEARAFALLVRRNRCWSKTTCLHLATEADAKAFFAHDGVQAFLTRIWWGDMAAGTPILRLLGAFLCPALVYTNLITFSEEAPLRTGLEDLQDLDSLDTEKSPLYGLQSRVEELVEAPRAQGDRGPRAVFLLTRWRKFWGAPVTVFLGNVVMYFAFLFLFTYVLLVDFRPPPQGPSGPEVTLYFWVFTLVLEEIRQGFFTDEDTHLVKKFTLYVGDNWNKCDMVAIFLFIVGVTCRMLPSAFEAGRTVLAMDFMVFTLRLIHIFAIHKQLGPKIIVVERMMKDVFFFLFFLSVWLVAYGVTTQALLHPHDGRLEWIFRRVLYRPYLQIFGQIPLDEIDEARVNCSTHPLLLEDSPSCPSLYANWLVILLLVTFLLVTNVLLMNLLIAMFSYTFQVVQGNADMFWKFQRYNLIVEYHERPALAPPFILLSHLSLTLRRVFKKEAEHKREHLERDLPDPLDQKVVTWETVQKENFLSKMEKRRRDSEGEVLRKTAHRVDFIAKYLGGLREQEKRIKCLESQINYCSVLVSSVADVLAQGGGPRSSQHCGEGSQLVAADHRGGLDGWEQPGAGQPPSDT

[4] = compared to glucose-dependent insulin production

| IC50 [3] | SMILES | effect on insulin secretion in combination with tolbutamide ([1]; FIG. 6) | Percent Enhancement of Insulin Secretion (10 μM) [1, 4] | glucose dependence of stimulation of insulin release [1] | inhibition of calcium-activated current [2] | Percent Enhancement of Insulin Secretion ([1]; tolbutamide tested at 30 μM, compared to glucose-dependent insulin production) |
| --- | --- | --- | --- | --- | --- | --- |
| 0.6 µM | COc1ccc(/C=N/NC(=O)C2CC2c2ccccc2)cc1OC (centres unmarked) [Example 4, (E)-N′-(3,4-Dimethoxybenzylidene)-2-phenylcyclopropanecarbohydrazide] | additive effects | 111% | increases insulin secretion in a glucose-dependent manner | inhibition of the current | – |
| 3 µM | COc1ccc(/C=N/NC(=O)COc2cccc(C)c2)cc1OC [Example 8, (E)-N′-(3,4-Dimethoxybenzylidene)-2-(m-tolyloxy)acetohydrazide] | – | 39% | – | – | – |
| – | CCCCNC(=O)NS(=O)(=O)c1ccc(C)cc1 [Tolbutamide, tolbutamide, reference compound] | – | – | not sensitive to glucose levels | – | 228% |
| 0.4 µM | COc1ccc(/C=N/NC(=O)CSc2cc(C)c3cccc(C)c3n2)cc1OC [Example 24, (4,8-Dimethylquinolin-2-ylsulfanyl)acetic acid (3,4-dimethoxybenzylidene)hydrazide] | – | 207% | – | – | – |
